For assay [1], the system named is Hyp1-NLuc Plasmodium falciparum-infected erythrocytes (new permeability pathway, NPP). Briefly: microbe, parasite or virus in culture. Particulars: Erythrocyte, 0.33 h, read-out: % of control remaining.
For assay [2] the test system is unchanged. Briefly: microbe, parasite or virus in culture. The conditions noted are these: Erythrocyte, 0.33 h, read-out: Mean RLU at 28 min (As % of DMSO control).

Where two headings read alike, the source gives them in different places.

For `COc1ccccc1N1C(=N)SC(=Cc2ccc(OCc3ccccc3F)cc2)C1=O` [MMV007199], the activity at 2 µM came to 62.6% in assay [1] and 86.7% in assay [2].
As to `CCOC(=O)c1cn(CC)c2cc(N(C)CCc3ccc(OC)c(OC)c3)c(F)cc2c1=O` [MMV665977], the activity at 2 µM is 87.8% in assay [1] and 106% in assay [2].
In the case of `O=C(CCl)NCCOc1ccc(Cl)cc1Cl` [MMV665927], the activity at 2 µM in assay [1] is 86.2%; in assay [2], 98.1%.
For the compound `Cc1ccc(C2CC(C(F)(F)F)n3nc(C(=O)N4CCN(C(c5ccccc5)c5ccccc5)CC4)cc3N2)cc1` (stereo not shown) [MMV000699], the activity at 2 µM in assay [1] was 100%; in assay [2] it was 101%.
With `COC(=O)c1ccc(C2C3=C(O)CC(c4ccc(F)cc4)CC3=Nc3ccccc3N2C(=O)c2ccccc2)cc1` (stereo not shown) [MMV011438], the activity at 2 µM in assay [1] is 89.7%; in assay [2] it was 92.2%.
For `Cc1cc(Nc2ccc(OCc3ccccc3)cc2)nc2cc(O)ccc12` [MMV007181], the activity at 2 µM was 108% in assay [1] and 105% in assay [2].
For `Cc1ccc(-c2cc3nc4c(c(O)n3n2)CCCC4)cc1` [MMV006937] the same measures were 58.4% and 100%.
Consider `COc1ccccc1N=C1C(=O)c2ccccc2C(O)=C1N1CCCCC1` [MMV085203], for which the activity at 2 µM came to 104% in assay [1] and 107% in assay [2].
On to `COc1nc(Nc2ccc(C(C)C)cc2)nc(OC)n1` [MMV007808], for which the activity at 2 µM in assay [1] and in assay [2] was 110% throughout.
On to `CCN1CCN(c2cc(C)c3cc(NC(=O)c4ccc(OC)c(OC)c4)ccc3n2)CC1` [MMV019074], for which the activity at 2 µM in assay [1] came out at 118%; in assay [2], 104%.
Turning to `Cc1ccc(CN2CCC(C(=O)Nc3ccc(-c4cc5ccccc5[nH]4)cc3)CC2)o1` [MMV666071], the activity at 2 µM stood at 101% in assay [1] and 94.8% in assay [2].
Take `CCCCc1ccc(NS(=O)(=O)c2cc3c4c(c2)CCN4C(=O)CC3)cc1` [MMV001255]: the activity at 2 µM was 89.2% in assay [1] and 100% in assay [2].
In the case of `COc1ccc(C2Sc3ccccc3N=C3C2=C(O)c2ccccc23)cc1` (stereo not shown) [MMV000563], the activity at 2 µM in assay [1] is 106%; in assay [2] it was 101%.
In the case of `Cc1cccc(-n2ncc3c(=O)[nH]c(-n4nc(C)cc4NC(=O)c4cc5ccccc5o4)nc32)c1` [MMV403679], the activity at 2 µM in assay [1] and in assay [2] was 109% each time.
In the case of `Clc1ccc2c(N3CCCC3)ccnc2c1` [MMV007363], the activity at 2 µM in assay [1] was found to be 115%; in assay [2], 114%.
With `COc1ccc(N2CCN(C(CNC(=O)CC(C)(C)C)c3ccc4c(c3)OCO4)CC2)cc1` (stereo not shown) [MMV665908], the activity at 2 µM was 97.1% in assay [1] and 92.5% in assay [2].
Turning to `O=C(Nc1ccc(Cl)c(Cl)c1)Nc1ccc(Cl)c(Cl)c1` [MMV665852], the activity at 2 µM was 125% in assay [1] and 117% in assay [2].
In the case of `COc1ccc(-c2nc3cc(Cc4ccc5[nH]c(-c6ccc(OC)cc6)nc5c4)ccc3[nH]2)cc1` [MMV007384], the activity at 2 µM came to 45.6% in assay [1] and 82.1% in assay [2].
For `CCCCCCC(O)(c1ccc(F)cc1)C(CN1CCOCC1)c1ccccc1` (stereo not shown) [MMV000621], the activity at 2 µM in assay [1] was determined as 117%; in assay [2], 106%.
With `Cc1c(C)n(Cc2ccc(F)cc2)c2ccc(C(=O)NCc3ccco3)cc12` [MMV008149], the activity at 2 µM in assay [1] was found to be 118%; in assay [2], 102%.
`COc1cccc(Nc2nc(N)c3ccccc3n2)c1` [MMV019199]: the activity at 2 µM in assay [1] worked out at 97.7%; in assay [2] it was 98.1%.
With `COc1ccc(CN2CCN(Cc3ccccc3)CC2)c(O)c1` [MMV665944], the activity at 2 µM in assay [1] was 99.6%; in assay [2], 96.8%.
As for `COc1ccc(C(=O)NC(c2ccc(Cl)cc2Cl)c2cc(Cl)c3cccnc3c2O)cc1` (stereo not shown) [MMV666054], the activity at 2 µM was found to be 106% in assay [1] and 101% in assay [2].

The record behind these values is publication PMC5118696, “Identification of inhibitors that dually target the new permeability pathway and dihydroorotate dehydrogenase in the blood stage of Plasmodium falciparum” (Scientific Reports, 2016).
